What was measured:
Penicillium expansum = assay: Drenching vs. vaporizing treatments of apples, browning; assay type: in vivo; settings: for Percent (%) Inhibition of Internal Browning: apples stored nine weeks at 1° C.
Procedure: An in vivo assay was used to evaluate the ability of vaporized pyrimethanil to control pathogenic infection of apples by Penicillium expansum as compared to drenching methods of apple treatment. Vaporized treatments of apples were performed as previous described in Examples 1-6, with the exception of using a 1 m wide×1 m high×8 m deep tunnel (see FIG. 11). […] In addition, drenching treatments comprising a final concentration of 125 mg/L, 500 mg/L, and 2000 mg/L of pyrimethanil active ingredient were also prepared. Fruits were stored for nine weeks at 1° C., and evaluated in order to observe and/or determine the area of browning on the fruit (see FIG. 22) and the percent of browning inhibition (see Table 7).

[1] = Agriphar Pyrimethanil (ISO) Safety Data Sheet; cited from earlier work
[2] = Particle size estimate from settling of fogged or vaporized pyrimethanil on Petri plates (HPLC); assay type: physicochemical; settings: for estimated pyrimethanil particle size: vaporized
Penicillium digitatum [3] = assay: In vitro assay of vaporized pyrimethanil to inhibit pathogenic fungal growth (agar plates); assay type: cell-based; settings: P. digitatum, 3 days at 23° C.
Procedure: (§1) An in vitro assay was used to evaluate the ability of pyrimethanil to vaporize in order to control the infection of various pathogenic microorganisms when applied to the plants and plant parts. For in vitro experiments, a 12-well microtiter plate, 6-well, or a 10-cm Petri plates each containing 7.5 ml, 16.5 or 22 ml volumes, respectively, of half strength Potato Dextrose Agar (PDA) were prepared. Each well or plate was inoculated with 1 microliter (μL) of 1×10^5 spores/ml of the appropriate pathogenic spore suspension (e.g., Botrytis cinerea, Penicillium expansum, Glomerella cingulata, Penicillium digitatum, Aspergillus flavus, Colletotrichum acutatum, Fusarium sambucinum, and Geotrichum candidum) by spotting the pathogen on the center of the agar well or plate. The inoculated microtiter or Petri plate was then sealed with a breathable film. One set of triplicate plates for each pathogen was placed inside the bottom of an air-tight 36-L desiccator chamber and closed with secure clamps.
(§2) Evaporation of the acetone left behind solid crystals of pyrimethanil.
(§3) The tube of the device was attached to a port on the side of the chamber that allowed airflow of the pyrimethanil vapor into the chamber. The chamber was at room temperature during administration of the pyrimethanil. The chambers were then incubated for three (3) days at 23° C. After incubation, post-treatment growth inhibition of each in vitro pathogen was measured on the inoculated plates and compared to control samples.

Glomerella cingulata = assay: as above; assay type: cell-based; settings: G. cingulata, 3 days at 23° C.
Procedure: as §1, §2, §3

Geotrichum candidum = assay: as above; assay type: cell-based; settings: G. candidum, 3 days at 23° C.
Procedure: as §1, §2, §3

Botrytis cinerea = assay: In vivo assay of vaporized pyrimethanil to inhibit Botrytis cinerea in blueberries; settings: for Gray Mold Severity (0-4): scale 0 no disease to 4 exceptionally high
Description: An in vivo assay was used to evaluate the ability of vaporized pyrimethanil to control pathogenic infection of blueberries by Botrytis cinerea.

Penicillium digitatum [4] = assay: In vivo assay of vaporized pyrimethanil to inhibit Penicillium digitatum in oranges
Procedure: An in vivo assay was used to evaluate the ability of vaporized pyrimethanil to control pathogenic infection of oranges by Penicillium digitatum. […] Each wound was then inoculated with 30 μL of 1×10^6 spores/mL suspension of P. digitatum.
Fruits were evaluated in order to observe growth of water-soaked lesions and fungal sporulation diameter (both measured in millimeters, mm).

[5] = 0.01 mg/L, Day 0 (after 3 days at 21° C.)
[6] = 0.01 mg/L, Day 1 (after 3 days at 21° C.)
[7] = 0.01 mg/L, Day 2 (after 3 days at 21° C.)
[8] = 0.01 mg/L, Day 3 (after 3 days at 21° C.)
[9] = 0.03 mg/L, Day 0 (after 3 days at 21° C.)
[10] = 0.03 mg/L, Day 1 (after 3 days at 21° C.)
[11] = 0.03 mg/L, Day 2 (after 3 days at 21° C.)
[12] = 0.03 mg/L, Day 3 (after 3 days at 21° C.)
[13] = 0.1 mg/L, Day 0 (after 3 days at 21° C.)
[14] = 0.1 mg/L, Day 1 (after 3 days at 21° C.)
[15] = 0.1 mg/L, Day 2 (after 3 days at 21° C.)
[16] = 0.1 mg/L, Day 3 (after 3 days at 21° C.)
[17] = 0.3 mg/L, Day 0 (after 3 days at 21° C.)
[18] = 0.3 mg/L, Day 1 (after 3 days at 21° C.)
[19] = 0.3 mg/L, Day 2 (after 3 days at 21° C.)
[20] = 0.3 mg/L, Day 3 (after 3 days at 21° C.)
[21] = 0.04 mg/L, Day 0 (after 3 days at 21° C.)
[22] = 0.04 mg/L, Day 1 (after 3 days at 21° C.)
[23] = 0.04 mg/L, Day 2 (after 3 days at 21° C.)
[24] = 0.2 mg/L, Day 0 (after 3 days at 21° C.)
[25] = 0.2 mg/L, Day 1 (after 3 days at 21° C.)
[26] = 0.2 mg/L, Day 2 (after 3 days at 21° C.)
[27] = 1 mg/L, Day 0 (after 3 days at 21° C.)
[28] = 1 mg/L, Day 1 (after 3 days at 21° C.)
[29] = 1 mg/L, Day 2 (after 3 days at 21° C.)

Cc1cc(C)nc(Nc2ccccc2)n1 [pyrimethanil, 4,6-Dimethyl-N-phenylpyrimidin-2-amine]
Percent (%) Inhibition of Internal Browning (Penicillium expansum; DRENCH, Treatment Rate 500 mg/L): 47%
Percent (%) Inhibition of Internal Browning (Penicillium expansum; DRENCH, Treatment Rate 2,000 mg/L): 69%
Percent (%) Inhibition of Internal Browning (Penicillium expansum; VAPOR, Treatment Rate 0.5 mg/L): 96%
Percent (%) Inhibition of Internal Browning (Penicillium expansum; VAPOR, Treatment Rate 2 mg/L): 100%
area of browning, vaporized compared with drenched (Penicillium expansum; apples treated in a preventative manner, nine weeks at 1° C., FIG. 22): less area (mm) of browning
known thermal decomposition range [1]: 189.54-344.74 °C
percent of total pyrimethanil settled on the plates ([2]; FOG (MeOH + PYR), Settling Time 7.5 Minutes, Particle Size 5.9 (μm)): 61%
percent of total pyrimethanil settled on the plates ([2]; FOG (MeOH + PYR), Settling Time 15 Minutes, Particle Size 4.1 (μm)): 77%
percent of total pyrimethanil settled on the plates ([2]; FOG (MeOH + PYR), Settling Time 30 Minutes, Particle Size 2.8 (μm)): 100%
percent of total pyrimethanil settled on the plates ([2]; FOG (MeOH + PYR), Settling Time 60 Minutes, Particle Size 1.9 (μm)): 100%
percent of total pyrimethanil settled on the plates ([2]; FOG (MeOH + PYR), Settling Time 360 Minutes, Particle Size 0.75 (μm)): 100%
percent of total pyrimethanil settled on the plates ([2]; VAPOR (100% Technical PYR), Settling Time 60 Minutes, Particle Size 1.9 (μm)): 26%
percent of total pyrimethanil settled on the plates ([2]; VAPOR (100% Technical PYR), Settling Time 360 Minutes, Particle Size 0.75 (μm)): 91%
particle size ([2]; fog particles, 100% settled after 30 minutes): approximately 2.8 micron
estimated pyrimethanil particle size ([2]; 26% settled after 60 minutes): 1.9 micron
estimated pyrimethanil particle size ([2]; 91% settled after 360 minutes): 0.75 micron
Mycelial Growth Inhibition (%) (Penicillium digitatum [3]; 0.1 mg/L headspace): 100.0%
Mycelial Growth Inhibition (%) (Penicillium digitatum [3]; 0.3 mg/L headspace): 100.0%
Mycelial Growth Inhibition (%) (Penicillium digitatum [3]; 1 mg/L headspace): 100.0%
Mycelial Growth Inhibition (%) (Glomerella cingulata; 0.1 mg/L headspace): 31.5%
Mycelial Growth Inhibition (%) (Glomerella cingulata; 0.3 mg/L headspace): 62.1%
Mycelial Growth Inhibition (%) (Glomerella cingulata; 1 mg/L headspace): 77.3%
Mycelial Growth Inhibition (%) (Geotrichum candidum; 0.1 mg/L headspace): 57.8%
Mycelial Growth Inhibition (%) (Geotrichum candidum; 0.3 mg/L headspace): 73.1%
Mycelial Growth Inhibition (%) (Geotrichum candidum; 1 mg/L headspace): 75.2%
Gray Mold Incidence (%) (Botrytis cinerea; [5]): 92.6%
Gray Mold Severity (0-4) (Botrytis cinerea; [5]): 0.9
Gray Mold Incidence (%) (Botrytis cinerea; [6]): 96.3%
Gray Mold Severity (0-4) (Botrytis cinerea; [6]): 1.1
Gray Mold Incidence (%) (Botrytis cinerea; [7]): 98.8%
Gray Mold Severity (0-4) (Botrytis cinerea; [7]): 1.4
Gray Mold Incidence (%) (Botrytis cinerea; [8]): 98.8%
Gray Mold Severity (0-4) (Botrytis cinerea; [8]): 2.1
Gray Mold Incidence (%) (Botrytis cinerea; [9]): 82.7%
Gray Mold Severity (0-4) (Botrytis cinerea; [9]): 0.7
Gray Mold Incidence (%) (Botrytis cinerea; [10]): 97.5%
Gray Mold Severity (0-4) (Botrytis cinerea; [10]): 1.1
Gray Mold Incidence (%) (Botrytis cinerea; [11]): 97.5%
Gray Mold Severity (0-4) (Botrytis cinerea; [11]): 1.3
Gray Mold Incidence (%) (Botrytis cinerea; [12]): 97.5%
Gray Mold Severity (0-4) (Botrytis cinerea; [12]): 1.7
Gray Mold Incidence (%) (Botrytis cinerea; [13]): 64.2%
Gray Mold Severity (0-4) (Botrytis cinerea; [13]): 0.5
Gray Mold Incidence (%) (Botrytis cinerea; [14]): 87.8%
Gray Mold Severity (0-4) (Botrytis cinerea; [14]): 0.9
Gray Mold Incidence (%) (Botrytis cinerea; [15]): 94.8%
Gray Mold Severity (0-4) (Botrytis cinerea; [15]): 1.1
Gray Mold Incidence (%) (Botrytis cinerea; [16]): 94.6%
Gray Mold Severity (0-4) (Botrytis cinerea; [16]): 1.7
Gray Mold Incidence (%) (Botrytis cinerea; [17]): 22.2%
Gray Mold Severity (0-4) (Botrytis cinerea; [17]): 0.2
Gray Mold Incidence (%) (Botrytis cinerea; [18]): 33.8%
Gray Mold Severity (0-4) (Botrytis cinerea; [18]): 0.2
Gray Mold Incidence (%) (Botrytis cinerea; [19]): 51.2%
Gray Mold Severity (0-4) (Botrytis cinerea; [19]): 0.3
Gray Mold Incidence (%) (Botrytis cinerea; [20]): 52.0%
Gray Mold Severity (0-4) (Botrytis cinerea; [20]): 0.3
Fungal Sporulation (mm) (Penicillium digitatum [4]; [21]): 1.1 mm
Water soaked Lesion (mm) (Penicillium digitatum [4]; [21]): 0.0 mm
Fungal Sporulation (mm) (Penicillium digitatum [4]; [22]): 1.4 mm
Water soaked Lesion (mm) (Penicillium digitatum [4]; [22]): 0.0 mm
Fungal Sporulation (mm) (Penicillium digitatum [4]; [23]): 2.1 mm
Water soaked Lesion (mm) (Penicillium digitatum [4]; [23]): 0.0 mm
Fungal Sporulation (mm) (Penicillium digitatum [4]; [24]): 0.6 mm
Water soaked Lesion (mm) (Penicillium digitatum [4]; [24]): 0.0 mm
Fungal Sporulation (mm) (Penicillium digitatum [4]; [25]): 0.8 mm
Water soaked Lesion (mm) (Penicillium digitatum [4]; [25]): 0.0 mm
Fungal Sporulation (mm) (Penicillium digitatum [4]; [26]): 2.4 mm
Water soaked Lesion (mm) (Penicillium digitatum [4]; [26]): 1.5 mm
Fungal Sporulation (mm) (Penicillium digitatum [4]; [27]): 1.8 mm
Water soaked Lesion (mm) (Penicillium digitatum [4]; [27]): 0.0 mm
Fungal Sporulation (mm) (Penicillium digitatum [4]; [28]): 2.0 mm
Water soaked Lesion (mm) (Penicillium digitatum [4]; [28]): 0.0 mm
Fungal Sporulation (mm) (Penicillium digitatum [4]; [29]): 2.1 mm
Water soaked Lesion (mm) (Penicillium digitatum [4]; [29]): 0.0 mm

From patent US10021881B2, “Vaporized administration of pesticides” (priority 2016, dated 2018)
